Reference: PMC8901119 (Chemical Science, 2021)
Values joined by “and” are separate entries in the source; they are usually repeats but may differ in a detail not shown here. Identical values can stand only once. Starred links: 1 amine or outer side, 2 acyl side, 3 side chain; linkers in the order of their positions; H or OH if unused. Non-standard residues stand in square brackets, D forms with d. Residues, ends and D or L forms follow the SMILES beside them. Ala(7-MeO-coumarin-4-yl) = COc1ccc2c(C[C@H](N)C(=O)O)cc(=O)oc2c1; X1 = C[C@H](NC(=S)[C@H](CCCNC(=N)N)N[*:1])C(=O)[*:2]

How the values were obtained:
[1] = molecular target: T1, Cts B (Homo sapiens, UniProt P07858); assay: Cathepsin B inhibition assay with Z-RR-AMC; assay type: biochemical; conditions: approximate; competitive model
T1 construct: cathepsin B (Cts B, ≥1,500 units/mg protein, solution; from human liver); purchased Sigma-Aldrich; host or cells: human liver (tissue-purified)
Protocol: (§1) Phan et al. Electronic SupplementaryInformation
Cathepsin B Inhibition Assay. For cathepsin B (Cts B, ≥1,500 units/mg protein, solution; from […]
and 5 mM DTT (pH 5.5). A stock solution of enzyme in 50 mM sodium acetate, pH 5.0, with 1 […]
Diluted solution of Cts B was […]
kinetic model in Prism 8 (GraphPad Software; La Jolla, CA) using Eq. S1 to determine Vmax and KM (Table S22). 5 Turnover number (k cat) was calculated by dividing Vmax by the enzyme concentration(Table S22).
(§2) Similar analysis was done for Cts V, Cts K, Cts S, and Cts B to evaluate and approximate the inhibitory effects of the thiopeptide RS1A. Initial evaluation of the kinetic parameters were obtained […]
(§3) 24), then the data were further analyzed with the non-linear regression method with a mixed - […]
(§4) the mechanism with the parameter α. Further fitting to an appropriate model (e.g. uncompetitive, competitive, or non-competitive model) was performed if needed. The approximate kinetic parameters resulted from best fit models for the RS1A peptide and the corresponding proteases are […]
(§5) Table S24. Approximate Kinetic Parameters for Cts L, V, K, S, and B Inhibition by R S1A Peptide (μHLFR SAμ).
(§6) Protease α (Best Fitted Model) KI (μM) αKI or KI'
(§7) Cts S Very large (Competitive) 53.47 ± 11.42 - Cts B Very large (Competitive) >> 50 -

[2] = molecular target: T2, Cts S (Homo sapiens, UniProt P25774); assay: Cathepsin S inhibition assay with Z-LR-AMC; assay type: biochemical; conditions: approximate; competitive model
T2 construct: purchased Sigma-Aldrich; host or cells: FreeStyle 293-F cells
T2 sequence (P25774 115-331): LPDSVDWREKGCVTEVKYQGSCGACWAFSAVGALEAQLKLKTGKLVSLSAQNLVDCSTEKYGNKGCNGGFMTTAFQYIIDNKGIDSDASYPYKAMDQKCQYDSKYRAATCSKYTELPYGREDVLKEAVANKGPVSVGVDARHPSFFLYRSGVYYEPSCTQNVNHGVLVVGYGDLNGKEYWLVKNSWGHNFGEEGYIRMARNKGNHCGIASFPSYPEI
Protocol: as §1
Cathepsin S Inhibition Assay. For cathepsin S (Cts S, 2 mg/mL, solution; recombinant, expressed in FreeStyle™ 293-F cells, ≥90% pure by SDS-PAGE), various concentrations of the substrate Z- […]
A stock solution of 2 mg/mL enzyme in 45 mM Tris-HCl, pH 8.0, 124 mM NaCl, 2.4 mM KCl, 225 mM imidazole, 3 mM DTT, and 10% glycerol was diluted with assay buffer containing 5 mM DTT. Peptide (inhibitor) stock solutions […]
with the assay buffer. A 20 mM stock solution of the chromogenic substrate Z-LR-AMC (Bachem; […]
assay to ensure reproducibility. […]
progress curve (Figure S23). Similar to the analysis with Cts L, these curves were fit to Michaelis - Menten enzyme kinetic model in Prism 8 (GraphPad Software; La Jolla, CA) using Eq. S1 to determine Vmax and KM (Table S21). 5 Turnover number (k cat) was calculated by dividing Vmax by the enzyme concentration (Table S21).
as §2, §3
the mechanism with the parameter α. Further fitting to an appropriate model (e.g. uncompetitive, competitive, or non-competitive model) was performed if needed. […]

[3] = molecular target: T3, Cts L (Homo sapiens, UniProt P07711); assay: Cathepsin L inhibition assay with Z-FR-AMC; conditions: Cts L, mixed inhibition model fit, Z-FR-AMC, pH 5.5, 27 °C
T3 sequence (P07711 114-333): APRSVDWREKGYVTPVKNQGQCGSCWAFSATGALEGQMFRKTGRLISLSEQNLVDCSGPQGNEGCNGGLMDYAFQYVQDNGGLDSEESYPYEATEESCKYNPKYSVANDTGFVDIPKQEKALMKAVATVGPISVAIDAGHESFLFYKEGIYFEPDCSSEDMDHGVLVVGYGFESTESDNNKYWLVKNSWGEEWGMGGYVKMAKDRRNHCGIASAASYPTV
Protocol: The peptide inhibitors were pre-incubated with the appropriate proteases in the assay buffer for 10 min to ensure full interactions prior being added to the fluorogenic substrates. The fluorescence of the reaction was monitored as a function of time at 460 nm with an excitation wavelength of 380 nm by a Tecan M1000 plate reader. Each assay was done in triplicates to ensure reproducibility.
Cathepsin L Inhibition Assay. For cathepsin L (Cts L, ≥ 0.5 units/mg protein, solution; from human liver), various concentrations of the substrate Z-FR-AMC (1 μM, 2 μM, 3 μM, 5 μM, 7
μM, 10 μM, 15 μM, and 20 μM) were reacted with 37.9 nM Cts L in a 96-well plate at 27 °C.
Assay buffer consisted of100 mM sodium acetate, 100 mM NaCl, 1 mM EDTA, and 5 mM DTT
with this KSP1 peptide were conducted in 12.3 mM Na2HPO4, 87.7 mM NaH2PO4, 100 mM NaCl,
5 mM DTT, 1 mM EDTA, pH 6.0 at 27 °C – the buffer condition used for this peptide construct
3 A stock solution of 220 μg/mL enzyme in 20 mM malonate, 1 mM EDTA, 400
mM NaCl, pH 5.5 was diluted with the assay buffer. Peptide (inhibitor) stock solutions were
prepared in a minimal amount of Milli-Q water then diluted to the desired concentrations with the
assay buffer. A 5 mM stock solution of the fluorogenic substrate Z-FR-AMC (Bachem; Torrance, CA, USA) was initially prepared in DMSO and diluted with assay buffer. The diluted solution of
Cts L was incubated in the assay buffer with or without the peptide inhibitor at room temperature
for 10 min. For each 50 μL reaction, 25 μL of this Cts L solution (either with or without the peptide inhibitor) was added to 25 μL diluted Z-FR-AMC substrate to initiate the reaction. The fluorescence of the reaction was monitored as a function of time at 460 nm with an excitation wavelength of 380 nm on the Tecan M1000 plate reader. Three independent trials were performed
for each assay to ensure reproducibility. For analysis, the fluorescence data was converted to rates
of proteolysis in terms of concentration (μM/min) by a conversion factor calculated from a linear
fit of the endpoint fluorescence at complete hydrolysis versus substrate concentration. The initial reaction rate was then calculated by extracting the slope of a linear fit of the first 2 min of the
progress curve (Figures S13-S19). These curves were fit to a Michaelis-Menten enzyme kinetic
Kinetics Analysis of the Peptide Inhibitors of Cathepsin L, V, K, B, and S
For Cts L, from initial evaluation of the kinetic parameters obtained from fitting to Michaelis-
data from Z-FR-AMC inhibition assays with Cts L was thus further fitted to a general Mixed
Inhibition Model in GraphPad Prism version 8.4.3 (GraphPad Software; La Jolla, CA), using
A mixed Inhibition Mechanism for Reversible Inhibitors. Abbreviations: E: enzymes;
S: substrate; I: inhibitor; P: product; EI: enzyme-inhibitor complex; ESI: enzyme-substrate-
inhibitor complex; KI: dissociation constant for the EI complex; αK I (also known as KI'):
dissociation constant for the ESI complex.
This general mixed-inhibition model uses a global fitting in which Vmax, KM, KI, constant α and are
shared. The constant α here determines the degree to which inhibitor binding changes the affinity
of the enzyme for substrate; the value of α is always greater than zero.5, 6 An α = 1 (K I = αKI)
complex (ES); the model then becomes identical to a noncompetitive inhibition model.5, 6 When α
> 1, the inhibitor binds preferentially to the free enzyme (E); if α = ∞, the inhibitor binds almost
exclusively the free enzyme and this model becomes identical to competitive inhibition.5, 6 If 0 <α

[4] = molecular target: T3, Cts L; assay: Cathepsin L activity assay with HepG2 whole cell lysate; assay type: biochemical; design: Cts L activity in human hepatocellular carcinoma HepG2 whole cell lysate; host or cells: HepG2 whole cell lysate; conditions: 0.05 mg/mL lysate, 200 μM Ac-FR-AFC, 37 °C, 1 h
Protocol: Cts L activity in human hepatocellular carcinoma HepG2 whole cell lysate (200 μg at 2.5 mg mL^−1; ab166833; Abcam, Cambridge, MA) was evaluated using a fluorometric Cathepsin L Activity Assay Kit (ab65306; Abcam, Cambridge, MA, USA) following the manufacturer's protocols. […] The cell lysate and the peptide inhibitor were incubated at room temperature for 10 min. A total of 2 μL of 10 mM CL substrate Ac-FR-AFC substrate (to a final concentration of 200 μM) was then added to each well, except the Lysate Background Control wells. Different concentrations (56 nM, 560 nM, and 1 μM) of SID 26681509, a known Cts L inhibitor, were used as positive controls. The samples were mixed; the plate was sealed to avoid evaporation and incubated at 37 °C for 1 h. The fluorescence of each sample was measured at 505 nm with an excitation wavelength of 400 nm on the Tecan plate reader. […]
Cts L activity in human hepatocellular carcinoma HepG2 whole cell lysate (200 µg at 2.5 mg/ml; ab166833; Abcam, Cambridge, MA, USA) was evaluated using a fluorometric Cathepsin L Activity Assay Kit (ab65306; Abcam) following the manufacturer’s protocols. […] The fluorescence of each sample was measured […]
fluorescence data shown in Figure 4 in the main text are the average of three replicates. […]

[5] = Stability of peptides in HepG2 whole cell lysate; assay type: in vitro ADME; conditions: human, 20 μM peptide, 0.05 mg/mL lysate, HPLC
Protocol: Stability of Peptides in HepG2 Whole Cell Lysate
Using the same conditions as the previous Cts L Activity Assay in HepG2 Whole Cell Lysate, 50 μL peptide (either R1A or RS1A; final concentration 20 μM) was incubated in 50 μL HepG2 whole cell lysate (to a final concentration of 0.05 mg/mL) in the assay buffer for different time points.
The all-amide peptide, R 1A, was incubated for t = 0, 5, 10, 15, 20, and 30 minutes. The thioamide peptide, RS1A, was incubated for t = 0, 2, 6, 8, 10, and 24 hours. After incubation for the desired amount of time, 100 μL methanol was added to the mixture and incubated at -20 °C for 10 minutes before spinning down at 13,000 rpm for 10 minutes. Then, 180 μL of each mixture was further diluted with 220 μL Milli-Q water to a total volume of 400 μL before adding 1 μL 0.42 mM coumarin internal standard for HPLC analysis. The coumarin internal standard was used to normalize the amount of intact peptide in each sample. A Phenomenex Luna® Omega 5 µm PS C18 100 Å analytical column was used to analyze all samples using the same gradient of 20-40 % B over 20 minutes (Solvent A: 0.1% TFA in Milli-Q water; Solvent B: 0.1% TFA in acetonitrile).
Representative HPLC spectra (325 nm) at different time points were also shown to confirm the stability of the peptides in HepG2 whole cell lysate (Figure S26 A & B). MALDI MS was used to confirm the mass from each fraction from the HPLC from experiment with the all-amide peptide (R 1A – expected [M+H]+ = 1133.51 m/z) and the thioamide peptide ( RS1A – expected [M+H]+ = 1149.48 m/z). To calculate the percent intact peptide for each sample, the average ratio of intact peptide to internal standard was compared to that ratio at t = 0. For each time point, the experiment

[6] = molecular target: T4, Cts V (Homo sapiens, UniProt O60911); assay: Cathepsin V inhibition assay with Z-LR-AMC; assay type: biochemical; conditions: pH 5.5, 27 °C, approximate
T4 construct: purchased Sigma-Aldrich; host or cells: FreeStyle 293-F cells
T4 sequence (O60911 114-334): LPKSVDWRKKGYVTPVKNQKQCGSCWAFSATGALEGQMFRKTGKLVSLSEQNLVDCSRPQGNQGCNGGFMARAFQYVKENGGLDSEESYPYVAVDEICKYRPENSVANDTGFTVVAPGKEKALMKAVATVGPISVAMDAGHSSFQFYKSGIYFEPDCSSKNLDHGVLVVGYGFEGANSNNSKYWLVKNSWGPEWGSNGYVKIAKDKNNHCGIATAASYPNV
Protocol: as §1
Cathepsin V Inhibition Assay. For cathepsin V (Cts V, 0.38 mg/mL, solution; recombinant, expressed in FreeStyle™ 293-F cells, ≥90% pure by SDS-PAGE), various concentrations of the […]
A stock solution of 0.35 mg/mL enzyme
Three independent trials were
Similar to the analysis with Cts L, these curves
CA) using Eq. S1 to determine Vmax and KM (Table S19). 5 Turnover number (k cat) was calculated by dividing V max by the enzyme concentration (Table S19).
as §2, §3, §4, §5, §6, §7

[7] = molecular target: T5, Cathepsin L (Homo sapiens, UniProt P07711); assay: Cathepsin L inhibition assay in MDA-MB-231 cells (Magic Red); assay type: cell-based; conditions: for Cathepsin Activity (%), single technical replicates: normalized to 0.5% DMSO + Magic Red control, biological replicates 1 and 2
T5 construct: host or cells: MDA-MB-231 cells
T5 sequence (P07711 114-333): as the sequence (P07711 114-333) above
Protocol: as §1
Cell Culture & Cathepsin L Inhibition Assays in MDA -MB-231 Cells
MDA-MB-231 cells (ATCC, #HBT-26) were seeded at 1 x 10^5/well in a black, 24-well, TC-treated plate (Corning). Cells were cultured in 400 µL media per well containing DMEM (Corning), 10% Fetal Bovine Serum (FBS; Atlanta Biologicals), and 1% Penicillin/Streptomycin (Gibco) at 37 °C in 5% CO2. After 48 hours, the cells in each well were treated with 400 µL fresh media containing either 0.5 % DMSO (sterile filtered; Sigma Aldrich), 20 µM SID 26681509 (a known Cts L inhibitor; Tocris), 10 µM E-64 (a known cell-permeable pan cathepsin inhibitor; Tocris), or 50 µM
RS1A. Cathepsin L activity in MDA-MB-231 cells were then evaluated using ICT’s Magic Red TM cathepsin-L substrate, MR-(FR) 2, according to the manufacturer’s protocol (Immunochemistry Technologies, LLC). After incubating the cells for 24 hours in the experimental conditions, 16 µL sterile Milli-Q H 2O (for the unstained cell controls) or 16 µL 26X Magic Red staining solution was added to each well, and the 24-well plate was covered with foil for 60 minutes in a 37°C incubator with 5% CO2. The media was removed from the cell monolayer surface and the cells were rinsed Dulbecco’s phosphate-buffered saline containing Mg 2+ and Ca2+ (DPBS; Corning) (2 x 500 µL DPBS/well with 1 min/rinse). The cells were then immediately visualized at 20X magnification with an Olympus CKX53 microscope with a Reflected Light Fluorescence Illuminator equipped with a green 530-550 nm exciter filler, 570 nm dichroic mirror , and a long pass 575 nm emission/barrier filter. Images were taken by Olympus EP50 camera via the Olympic EP app on an iPhone XR. Positive cells stained with Magic Red would appear red with more brightly stained vacuoles and lysosomes. […]
Cell fluorescence from raw images was analyzed using ImageJ -Fiji. The color images were first split into RGB channels; all Red-channel images were then quantified for integrated fluorescence density across the entire images at the same threshold. […]

[8] = test system: SARS-CoV-2 pseudovirus; design: method as in PMID 32221306; conditions: HEK 293/hACE2 cells; cited from earlier work
[9] = test system: Cts L; design: method as in earlier work; conditions: 10 µM, 24-hour treatment; ref 20 (ESI); cited from earlier work

COc1ccc2c(C[C@H](NC(=O)[C@H](C)NC(=S)[C@H](CCCNC(=N)N)NC(=O)[C@H](Cc3ccccc3)NC(=O)[C@H](CC(C)C)NC(=O)[C@H](Cc3c[nH]cn3)NC(=O)[C@@H](N)Cc3cc(=O)oc4cc(OC)ccc34)C(=O)O)cc(=O)oc2c1 [RS1A] (H-[Ala(7-MeO-coumarin-4-yl)]HLF[X1][Ala(7-MeO-coumarin-4-yl)]-OH)
Ki [1]: > 50 µM
Ki [2]: 53.5 ± 11.4 µM
Ki [3]: 1.11 ± 0.22 µM

COc1ccc2c(C[C@H](NC(=O)[C@H](C)NC(=S)[C@H](CCCNC(=N)N)NC(=O)[C@H](Cc3ccccc3)NC(=O)[C@H](CC(C)C)NC(=O)[C@H](Cc3c[nH]cn3)NC(=O)[C@@H](N)Cc3cc(=O)oc4cc(OC)ccc34)C(=O)O)cc(=O)oc2c1 [R^S1A] (H-[Ala(7-MeO-coumarin-4-yl)]HLF[X1][Ala(7-MeO-coumarin-4-yl)]-OH)
IC50 [4]: 19 µM and 19.3 µM
half-life at 20 μM [5]: 28.6 h
Ki [6]: 26.2 ± 8.42 µM

CCc1ccccc1NC(=O)CSC(=O)NNC(=O)[C@H](Cc1c[nH]c2ccccc12)NC(=O)OC(C)(C)C [SID 26681509]
Cathepsin Activity (%), single technical replicates ([7]; 20 uM, listed as SID, 20 µM): 93.8537% and 84.7857% and 75.9763% and 71.3834% and 62.7105% and 65.0709%
Decrease of SARS-CoV-2 pseudovirus entry [8]: more than 76%

CC(C)C[C@H](NC(=O)[C@H]1O[C@@H]1C(=O)O)C(=O)NCCCCN=C(N)N [E-64]
Reduction of Cts L activity in MDA-MB-231 cells [9]: 30-40%
Reduction of Cts L activity in MDA-MB-231 cells ([7]; 10 µM, 24 hours): 32%
Cathepsin Activity (%), single technical replicates ([7]; 10 uM, 10 µM): 74.2204% and 67.3402% and 72.3857% and 56.9211% and 49.1973% and 90.0663%
